Test system: MV-4-11 cells
Assay: Gene expression microarray analysis (Affymetrix PrimeView) and GSEA
Type: cell-based, human
Design: RFU PODN (11730768_x_at) / Fold change /veh PODN (11730768_x_at) / RFU LINC00158 (11744669_a_at) / Fold change /veh LINC00158 (11744669_a_at) / RFU DUSP10 (11751237_a_at) / Fold change /veh DUSP10 (11751237_a_at) / RFU ID3 (11757404_x_at) / Fold change /veh ID3 (11757404_x_at) / RFU PLEKHG5 (11737974_s_at) / Fold change /veh PLEKHG5 (11737974_s_at) / RFU LRRC4B (11730491_at) / Fold change /veh LRRC4B (11730491_at) / RFU GIMAP4 (11747438_a_at) / Fold change /veh GIMAP4 (11747438_a_at) / RFU KRT8 (11758183_x_at) / Fold change /veh KRT8 (11758183_x_at) / RFU CNN1 (11734310_a_at) / Fold change /veh CNN1 (11734310_a_at) / RFU VPS37D (11726825_at) / Fold change /veh VPS37D (11726825_at) / RFU C10orf10 (11716522_x_at) / Fold change /veh C10orf10 (11716522_x_at) / RFU KIR2DL2 /// KIR2DL4 /// KIR2DL5A /// KIR2DL5B /// KIR2DS1 /// KIR2DS2 /// KIR2DS3 /// KIR2DS4 /// KIR3DL3 /// KIR3DL3 /// KIR3DS1 (11738374_at) / Fold change /veh KIR2DL2 /// KIR2DL4 /// KIR2DL5A /// KIR2DL5B /// KIR2DS1 /// KIR2DS2 /// KIR2DS3 /// KIR2DS4 /// KIR3DL3 /// KIR3DL3 /// KIR3DS1 (11738374_at) / RFU C1QL1 (11718748_at) / Fold change /veh C1QL1 (11718748_at) / RFU TMPRSS4 (11747572_a_at) / Fold change /veh TMPRSS4 (11747572_a_at) / RFU HAMP (11756126_x_at) / Fold change /veh HAMP (11756126_x_at) / RFU RNFT2 (11725882_a_at) / Fold change /veh RNFT2 (11725882_a_at) / RFU NR4A2 (11747474_a_at) / Fold change /veh NR4A2 (11747474_a_at) / RFU ABCC12 (11746883_a_at) / Fold change /veh ABCC12 (11746883_a_at) / RFU TMEM136 (11760407_x_at) / Fold change /veh TMEM136 (11760407_x_at) / RFU CLDN22 /// WWC2 (11732394_at) / Fold change /veh CLDN22 /// WWC2 (11732394_at) / RFU HLA-DPB1 (11760878_x_at) / Fold change /veh HLA-DPB1 (11760878_x_at) / RFU SPINT1 (11716480_a_at) / Fold change /veh SPINT1 (11716480_a_at) / RFU GAP43 (11754022_s_at) / Fold change /veh GAP43 (11754022_s_at) / RFU A4GNT (11735810_at) / Fold change /veh A4GNT (11735810_at) / RFU PRB3 (11715151_x_at) / Fold change /veh PRB3 (11715151_x_at) / RFU TUBB4B (11761932_at) / Fold change /veh TUBB4B (11761932_at) / RFU CAPN14 (11732068_a_at) / Fold change /veh CAPN14 (11732068_a_at) / RFU TMCC2 (11721928_a_at) / Fold change /veh TMCC2 (11721928_a_at) / RFU IRGQ (11745062_a_at) / Fold change /veh IRGQ (11745062_a_at) / RFU FAM174B (11720279_a_at) / Fold change /veh FAM174B (11720279_a_at) / RFU TMPRSS4 (11748680_a_at) / Fold change /veh TMPRSS4 (11748680_a_at) / RFU FAM212B (11763350_a_at) / Fold change /veh FAM212B (11763350_a_at) / RFU PLEKHG5 (11743358_a_at) / Fold change /veh PLEKHG5 (11743358_a_at) / RFU ZSCAN30 (11745921_a_at) / Fold change /veh ZSCAN30 (11745921_a_at) / RFU CMKLR1 (11741424_a_at) / Fold change /veh CMKLR1 (11741424_a_at) / RFU LOC101060620 /// MAPK8IP1 (11723275_at) / Fold change /veh LOC101060620 /// MAPK8IP1 (11723275_at) / RFU SPTSSB (11747773_x_at) / Fold change /veh SPTSSB (11747773_x_at) / RFU PRSS12 (11739890_at) / Fold change /veh PRSS12 (11739890_at) / RFU BIN1 (11741810_x_at) / Fold change /veh BIN1 (11741810_x_at) / RFU WNT11 (11732464_a_at) / Fold change /veh WNT11 (11732464_a_at) / RFU C10orf10 (11716521_a_at) / Fold change /veh C10orf10 (11716521_a_at) / RFU C5orf56 (11738089_at) / Fold change /veh C5orf56 (11738089_at) / RFU CYB561 (11721691_x_at) / Fold change /veh CYB561 (11721691_x_at) / RFU ANKRD19P (11752326_a_at) / Fold change /veh ANKRD19P (11752326_a_at) / RFU OR2T12 /// OR2T33 /// OR2T8 (11738714_s_at) / Fold change /veh OR2T12 /// OR2T33 /// OR2T8 (11738714_s_at) / RFU VCAN (11748164_a_at) / Fold change /veh VCAN (11748164_a_at) / RFU JSRP1 (11732532_at) / Fold change /veh JSRP1 (11732532_at) / RFU KRTAP10-11 (11738290_x_at) / Fold change /veh KRTAP10-11 (11738290_x_at) / RFU MYO3A (11730013_a_at) / Fold change /veh MYO3A (11730013_a_at) / RFU EBF3 (11725865_a_at) / Fold change /veh EBF3 (11725865_a_at) / RFU CAMK2N1 (11719241_x_at) / Fold change /veh CAMK2N1 (11719241_x_at) / RFU C5orf56 (11738088_a_at) / Fold change /veh C5orf56 (11738088_a_at) / RFU OLFML3 (11715873_a_at) / Fold change /veh OLFML3 (11715873_a_at) / RFU LOC100653217 /// NTM (11731650_a_at) / Fold change /veh LOC100653217 /// NTM (11731650_a_at) / RFU MAPK11 (11762145_a_at) / Fold change /veh MAPK11 (11762145_a_at) / RFU FIZ1 (11724087_x_at) / Fold change /veh FIZ1 (11724087_x_at) / RFU OASL (11726364_x_at) / Fold change /veh OASL (11726364_x_at) / RFU SOX15 (11748057_x_at) / Fold change /veh SOX15 (11748057_x_at) / RFU CD79A (11719716_a_at) / Fold change /veh CD79A (11719716_a_at) / RFU HIST1H1D (11736915_at) / Fold change /veh HIST1H1D (11736915_at) / RFU CASKIN2 (11723855_a_at) / Fold change /veh CASKIN2 (11723855_a_at) / RFU LOC730098 (11760151_x_at) / Fold change /veh LOC730098 (11760151_x_at) / RFU OR4N2 (11742367_at) / Fold change /veh OR4N2 (11742367_at) / RFU PRRT2 (11749266_a_at) / Fold change /veh PRRT2 (11749266_a_at) / RFU SNX32 (11753110_a_at) / Fold change /veh SNX32 (11753110_a_at) / RFU CDHR5 (11726645_a_at) / Fold change /veh CDHR5 (11726645_a_at) / RFU RCAN1 (11760418_a_at) / Fold change /veh RCAN1 (11760418_a_at) / RFU FAM167A (11723789_a_at) / Fold change /veh FAM167A (11723789_a_at) / RFU FAM26E (11764081_at) / Fold change /veh FAM26E (11764081_at) / RFU ISYNA1 (11749810_s_at) / Fold change /veh ISYNA1 (11749810_s_at) / RFU ACY1 (11761880_at) / Fold change /veh ACY1 (11761880_at) / RFU 11764098_at / Fold change /veh 11764098_at / RFU SAMD14 (11745864_x_at) / Fold change /veh SAMD14 (11745864_x_at) / RFU NPB (11741838_a_at) / Fold change /veh NPB (11741838_a_at) / RFU TMPRSS6 (11731388_a_at) / Fold change /veh TMPRSS6 (11731388_a_at) / RFU KRTAP10-2 (11738614_at) / Fold change /veh KRTAP10-2 (11738614_at) / RFU ARHGAP8 /// PRR5-ARHGAP8 (11727945_x_at) / Fold change /veh ARHGAP8 /// PRR5-ARHGAP8 (11727945_x_at) / RFU KRTAP5-7 /// NADSYN1 (11734609_at) / Fold change /veh KRTAP5-7 /// NADSYN1 (11734609_at) / RFU RASL12 (11751679_a_at) / Fold change /veh RASL12 (11751679_a_at) / RFU CDKN2B (11736163_a_at) / Fold change /veh CDKN2B (11736163_a_at) / RFU PRF1 (11729649_at) / Fold change /veh PRF1 (11729649_at) / RFU, ZNF638 /// ZNF638-IT1 / Fold change vs veh, ZNF638 /// ZNF638-IT1 / RFU, PANK3 / Fold change vs veh, PANK3 / RFU, SH3YL1 / Fold change vs veh, SH3YL1 / RFU, ZEB2 / Fold change vs veh, ZEB2 / RFU, NRIP1 / Fold change vs veh, NRIP1 / RFU, PTTG1IP / Fold change vs veh, PTTG1IP / RFU, CAPN2 / Fold change vs veh, CAPN2 / RFU, MED14 / Fold change vs veh, MED14 / RFU, SNORA58 / Fold change vs veh, SNORA58 / RFU, C1orf63 / Fold change vs veh, C1orf63 / RFU, LRRFIP1 / Fold change vs veh, LRRFIP1 / RFU, NDUFAF7 / Fold change vs veh, NDUFAF7 / RFU, SLC12A2 / Fold change vs veh, SLC12A2 / RFU, IBTK / Fold change vs veh, IBTK / RFU, ESF1 / Fold change vs veh, ESF1 / Fold change vs veh, TMEM50B / RFU, TAOK1 / Fold change vs veh, TAOK1 / RFU, ACBD3 / Fold change vs veh, ACBD3 / RFU, TMA16 / Fold change vs veh, TMA16 / RFU, RWDD3 / Fold change vs veh, RWDD3 / RFU, BCAT1 / Fold change vs veh, BCAT1 / RFU, EDEM3 / Fold change vs veh, EDEM3 / RFU, TMEM33 / Fold change vs veh, TMEM33 / RFU, WDR75 / Fold change vs veh, WDR75 / RFU, AHCTF1 / Fold change vs veh, AHCTF1 / RFU, TFRC / Fold change vs veh, TFRC / RFU, ZDHHC17 / Fold change vs veh, ZDHHC17 / RFU, NOM1 / Fold change vs veh, NOM1 / RFU, ARL8B / Fold change vs veh, ARL8B / RFU, ZBTB11 / Fold change vs veh, ZBTB11 / RFU, TAMM41 / Fold change vs veh, TAMM41 / RFU, KIAA1704 /// LOC100996395 / Fold change vs veh, KIAA1704 /// LOC100996395 / RFU, ING1 / Fold change vs veh, ING1 / RFU, TRMT61B / Fold change vs veh, TRMT61B / RFU, FUBP3 / Fold change vs veh, FUBP3 / RFU, TP53 / Fold change vs veh, TP53 / RFU, TNKS2 / Fold change vs veh, TNKS2 / RFU, ZFP14 / Fold change vs veh, ZFP14 / RFU, ACTR2 / Fold change vs veh, ACTR2 / RFU, PPP3R1 / Fold change vs veh, PPP3R1 / RFU, PIK3R1 / Fold change vs veh, PIK3R1 / RFU, HNRNPA1 / Fold change vs veh, HNRNPA1 / RFU, RNF170 / Fold change vs veh, RNF170 / RFU, ZNF28 / Fold change vs veh, ZNF28 / RFU, RNGTT / Fold change vs veh, RNGTT / RFU, OGT / Fold change vs veh, OGT / RFU, BRD1 / Fold change vs veh, BRD1 / RFU, MARS / Fold change vs veh, MARS / RFU, ZNF655 / Fold change vs veh, ZNF655 / RFU, FAHD1 / Fold change vs veh, FAHD1 / RFU, BDP1 / Fold change vs veh, BDP1 / RFU, LRRCC1 / Fold change vs veh, LRRCC1 / RFU, ARID1A / Fold change vs veh, ARID1A / RFU, ZNF146 / Fold change vs veh, ZNF146 / RFU, ZNF330 / Fold change vs veh, ZNF330 / RFU, GPN3 / Fold change vs veh, GPN3 / RFU, C9orf123 / Fold change vs veh, C9orf123 / RFU, N4BP2L2 / Fold change vs veh, N4BP2L2 / RFU, ARFIP1 / Fold change vs veh, ARFIP1 / RFU, FAM179B / Fold change vs veh, FAM179B / RFU, BCL10 / Fold change vs veh, BCL10 / RFU, UHRF1BP1L / Fold change vs veh, UHRF1BP1L / RFU, BET1 / Fold change vs veh, BET1 / RFU, CNOT2 / Fold change vs veh, CNOT2 / RFU, ZNF268 / Fold change vs veh, ZNF268 / Fold change vs veh, ZNF507 / RFU, DGCR2 / Fold change vs veh, DGCR2 / RFU, WDSUB1 / Fold change vs veh, WDSUB1 / Fold change vs veh, HSP90B1 /// MIR3652 / RFU, ADSS / Fold change vs veh, ADSS / RFU, GK / Fold change vs veh, GK / RFU, ZNF148 / Fold change vs veh, ZNF148 / RFU, TAF9 / Fold change vs veh, TAF9 / RFU, SLC1A5 / Fold change vs veh, SLC1A5 / RFU, SLMO2 / Fold change vs veh, SLMO2 / RFU, ABCC4 / Fold change vs veh, ABCC4 / RFU, LOC101060439 /// RAP1B / Fold change vs veh, LOC101060439 /// RAP1B / RFU, RFX7 / Fold change vs veh, RFX7 / RFU, GTPBP10 / Fold change vs veh, GTPBP10 / RFU, CNEP1R1 / Fold change vs veh, CNEP1R1 / RFU, BIVM-ERCC5 /// ERCC5 / Fold change vs veh, BIVM-ERCC5 /// ERCC5 / RFU, ILF3 / Fold change vs veh, ILF3 / RFU 11762660_at / Fold change /veh 11762660_at / RFU VCAN (11757783_s_at) / Fold change /veh VCAN (11757783_s_at) / RFU DDX43 (11728927_at) / Fold change /veh DDX43 (11728927_at) / RFU KRT8 (11758188_x_at) / Fold change /veh KRT8 (11758188_x_at) / RFU NKD1 (11759106_at) / Fold change /veh NKD1 (11759106_at) / RFU SRD5A1 (11742802_a_at) / Fold change /veh SRD5A1 (11742802_a_at) / RFU TPSAB1 /// TPSB2 (11721975_s_at) / Fold change /veh TPSAB1 /// TPSB2 (11721975_s_at) / RFU GSTM3 (11746129_a_at) / Fold change /veh GSTM3 (11746129_a_at) / RFU IL23R (11737362_x_at) / Fold change /veh IL23R (11737362_x_at) / RFU TMEM51 (11727254_a_at) / Fold change /veh TMEM51 (11727254_a_at) / RFU PIWIL2 (11732686_x_at) / Fold change /veh PIWIL2 (11732686_x_at) / RFU ORM1 (11744905_x_at) / Fold change /veh ORM1 (11744905_x_at) / RFU CCDC152 (11743942_at) / Fold change /veh CCDC152 (11743942_at) / RFU ECM1 (11717891_a_at) / Fold change /veh ECM1 (11717891_a_at) / RFU IL23R (11748794_a_at) / Fold change /veh IL23R (11748794_a_at) / RFU TNFAIP8L3 (11732012_x_at) / Fold change /veh TNFAIP8L3 (11732012_x_at) / RFU MBOAT4 (11741988_at) / Fold change /veh MBOAT4 (11741988_at) / RFU 11764193_at / Fold change /veh 11764193_at / RFU TMEM53 (11763286_at) / Fold change /veh TMEM53 (11763286_at) / RFU MAGEB2 (11727129_at) / Fold change /veh MAGEB2 (11727129_at) / RFU TMEM200A (11744735_a_at) / Fold change /veh TMEM200A (11744735_a_at) / RFU CCDC152 (11751479_a_at) / Fold change /veh CCDC152 (11751479_a_at) / RFU FAM211A (11726209_a_at) / Fold change /veh FAM211A (11726209_a_at) / RFU RGS16 (11746705_a_at) / Fold change /veh RGS16 (11746705_a_at) / RFU VCAN (11755009_s_at) / Fold change /veh VCAN (11755009_s_at) / RFU RHOB (11743442_s_at) / Fold change /veh RHOB (11743442_s_at) / RFU RGS16 (11720943_a_at) / Fold change /veh RGS16 (11720943_a_at) / RFU RGS16 (11720944_at) / Fold change /veh RGS16 (11720944_at) / RFU, VPS4B / Fold change vs veh, VPS4B / RFU, CREB1 / Fold change vs veh, CREB1 / RFU, DNAJC13 / Fold change vs veh, DNAJC13 / RFU, GNAQ / Fold change vs veh, GNAQ / RFU, CDK5R1 / Fold change vs veh, CDK5R1 / RFU, ZRANB3 / Fold change vs veh, ZRANB3 / RFU, CUL4A / Fold change vs veh, CUL4A / RFU, CCNY / Fold change vs veh, CCNY / RFU, UFL1 / Fold change vs veh, UFL1 / RFU, COG3 / Fold change vs veh, COG3 / RFU, DIAPH2 / Fold change vs veh, DIAPH2 / RFU, SKA2 / Fold change vs veh, SKA2 / RFU, AFF3 / Fold change vs veh, AFF3 / RFU, LMF1 / Fold change vs veh, LMF1 / RFU, IPO11 / Fold change vs veh, IPO11 / RFU, DFFB / Fold change vs veh, DFFB / RFU, FOXP1 / Fold change vs veh, FOXP1 / RFU, CARD8 / Fold change vs veh, CARD8 / RFU, STRN3 / Fold change vs veh, STRN3 / RFU, ADK / Fold change vs veh, ADK / RFU, RASSF2 / Fold change vs veh, RASSF2 / RFU, WIPF1 / Fold change vs veh, WIPF1 / RFU, LARP1B / Fold change vs veh, LARP1B / RFU, RASA1 / Fold change vs veh, RASA1 / RFU, RB1 / Fold change vs veh, RB1 / RFU, PPFIA1 / Fold change vs veh, PPFIA1 / RFU, MAT2A / Fold change vs veh, MAT2A / RFU, CCT5 / Fold change vs veh, CCT5 / RFU, WDR92 / Fold change vs veh, WDR92 / RFU, CUX1 / Fold change vs veh, CUX1 / RFU, TTC7A / Fold change vs veh, TTC7A / RFU, TMEM135 / Fold change vs veh, TMEM135 / RFU, DEPTOR / Fold change vs veh, DEPTOR / RFU, CPM / Fold change vs veh, CPM / RFU, DNAJB6 / Fold change vs veh, DNAJB6 / RFU, CACNA2D3 / Fold change vs veh, CACNA2D3 / RFU, DTX4 / Fold change vs veh, DTX4 / RFU, TFCP2 / Fold change vs veh, TFCP2 / RFU, GMCL1 /// GMCL1P1 / Fold change vs veh, GMCL1 /// GMCL1P1 / RFU, AEBP2 / Fold change vs veh, AEBP2 / RFU, SNHG1 /// SNORD22 /// SNORD25 /// SNORD26 /// SNORD27 /// SNORD28 /// SNORD29 /// SNORD31 / Fold change vs veh, SNHG1 /// SNORD22 /// SNORD25 /// SNORD26 /// SNORD27 /// SNORD28 /// SNORD29 /// SNORD31 / Fold change (Aza/veh), C12orf56 (ProbeSet 11735607_a_at) / Fold change (ACY-1035/veh), C12orf56 (ProbeSet 11735607_a_at) / Fold change (Aza/veh), FGFR1OP (ProbeSet 11751329_s_at) / Fold change (ACY-1035/veh), FGFR1OP (ProbeSet 11751329_s_at) / Fold change (Aza/veh), VPS36 (ProbeSet 11739960_a_at) / Fold change (ACY-1035/veh), VPS36 (ProbeSet 11739960_a_at) / RFU SYPL1 (11715823_x_at) / Fold change /veh SYPL1 (11715823_x_at) / RFU IGFBP7 (11715501_s_at) / Fold change /veh IGFBP7 (11715501_s_at) / RFU REEP3 (11722064_at) / Fold change /veh REEP3 (11722064_at) / RFU IGLL1 (11728026_x_at) / Fold change /veh IGLL1 (11728026_x_at): dose or concentration left out as unconfirmed
Details: ProbeSet 11725901_x_at; LIST B

Nc1ncn([C@@H]2O[C@H](CO)[C@@H](O)[C@H]2O)c(=O)n1 [azacitidine]
RFU, RWDD3: 20.92 RFU
